Common to all, as to format: cell-based
Experiment [1] addresses T1, IKZF2 Helios (Homo sapiens, UniProt Q96SW2+Q9UKS7). The experiment is described as follows: Human Regulatory T Cell Degradation Assay. Also on record: endogenous in cells; host or cells: primary human CD4+CD127lowCD25+ Treg cells from healthy leukopaks. The following applies: human regulatory T cells, 20 hours; for DC50: vs DMSO alone. The procedure: Cryopreserved human regulatory T cells were thawed in RPMI + 10%FBS + 20 ng/mL IL-2. After being spun at 1200 rpm for 5 mins, the cells were resuspended in RPMI + 10% FBS+ 20 ng/mL and rested at 37 °C with 5% CO2 for 3 hours. The cells were then plated at 40,000 cells/well in 40 µL RPMI + 10% FBS + 20 ng/mL human IL-2 in a 384 well cell culture plate prior to using acoustic dispensing technology (ECHO 555) for adding compounds of interest. Cell cultures were incubated for 20 hours at 37 °C and 5% CO2. In order to facilitate analysis, cell cultures were spun down at 1200 rpm for 5 minutes and the supernatant was discarded using an EL406 plate washer. After washing three times with 70 µL PBS, cell pellets were resuspended in 50 µL of near IR viability staining solution (Life Technologies, Cat# L34975) and incubated for 30 minutes on ice protected from light. Cells were washed three times with 70 µL PBS + 0.5% BSA using an EL406 plate washer. After shaking the plate to dislodge the cell pellet, cells were resuspended in 50 µL of Fixation Buffer (eBioScience FoxP3 buffer set 00-5523-00) for 60 minutes at room temperature. After centrifuging and discarding the supernatant, cells were permeabilized with 50 µL of permeabilization buffer (eBioScience FoxP3 buffer set 00-5523-00) for 10 minutes at room temperature. Following permeabilization, cells were spun down and the supernatant was replaced with 30 µL fluorescently labelled antibodies against the intracellular targets Helios (Helios-APC [BioLegend, Cat# 137222, 1:50]), Aiolos, and Ikaros lx Permeabilization buffer and staining reactions were incubated for 1 hour at room temperature; protected from light. Subsequently, 30 µL of lx Permeabilization buffer was added prior to centrifuging the cells and discarding the supernatant. Stained cells were resuspended in 30 µL of flow cytometry staining buffer (PBS + 0.5%BSA) and analyzed using an Intellicyt Ique Plus flow cytometer. TABLE B-1

In experiment [2] the target is T2, IKZF3 Aiolos (Homo sapiens, UniProt Q96SW2+Q9UKT9). Description: Human Regulatory T Cell Degradation Assay. Particulars: human regulatory T cells, 20 hours; for DC50: vs DMSO alone. Also on record: Foxp3-BV421, HELIOS-PE-Cy7, EOS-PE, IKAROS-PECF594, AIOLOS-AF647; endogenous in cells; host or cells: human PBMC from healthy donors (CD8+ T cells gated by flow cytometry).

The target of experiment [3] is T3, IKZF4 Eos (Homo sapiens, UniProt Q96SW2+Q9H2S9).
T3 construct: endogenous in cells; host or cells: primary human CD4+CD127lowCD25+ Treg cells from healthy leukopaks
The experiment is described as follows: Human Regulatory T Cell Degradation Assay. The following applies: human regulatory T cells, 20 hours; for DC50: vs DMSO alone.

Experiment [4] has as its target T4, IKZF1 Ikaros (Homo sapiens, UniProt Q13422+Q96SW2). The experiment is described as follows: Jurkat Cellular Degradation Assay. Also on record: fluorescently labelled antibodies against Helios, Ikaros and Aiolos; endogenous in cells; host or cells: Jurkat cells. Particulars: Jurkat cells, 24 h; for DC50: 50% reduction of protein vs DMSO alone; for IKZF1 Ikaros max % deg. observed: 100% = complete degradation. The procedure: (§1) Jurkat cells were plated at 80,000 cells/well in 40 µL RPMI + 10% FBS in a 384-well cell culture plate prior to using acoustic dispensing technology for adding a compound of interest. Cell cultures were incubated for 24 h at 37 °C and 5% CO2. In order to facilitate analysis, cell cultures were spun down at 200 rpm for 5 min and the supernatant was discarded. After shaking the plate to dislodge the cell pellet, cells were resuspended in 50 µL of Fixation Buffer (eBioscience FoxP3 buffer set 00-5523-00) for 60 min at room temperature. After centrifuging and discarding the supernatant, cells were permeabilized with 50 µL of Permeabilization buffer (eBioscience FoxP3 buffer set 00-5523-00) for 10 min at room temperature. Following permeabilization, cells were spun down and the supernatant was replaced with 20 µL fluorescently labelled antibodies against Helios, Ikaros and Aiolos or corresponding Isotype controls in 1× Permeabilization buffer (Ikaros-Alexa488 [Biolegend, Cat #368408, 1:50], Helios-PE [CST, Cat #29360, 1:50]. Aiolos-Alexa647 [Biolegend, Cat #371106 Biolegend, 1:25]) and staining reactions were incubated for 1 h at room temperature while protected from light. Subsequently, 30 µL of 1× Permeabilization buffer was added prior to centrifuging the cells and discarding the supernatant. Stained cells were resuspended in 25 µL of flow cytometry staining buffer [PBS + 0.2% bovine serum albumin (BSA)] and analyzed using an Intellicyt Ique Plus flow cytometer. TABLE A-1

Experiment [5] deals with T2, IKZF3 Aiolos. The experiment is described as follows: Jurkat Cellular Degradation Assay. Also on record: fluorescently labelled antibodies against Helios, Ikaros and Aiolos; endogenous in cells; host or cells: Jurkat cells. Particulars: Jurkat cells, 24 h; for DC50: 50% reduction of protein vs DMSO alone; for IKZF3 Aiolos max % deg. observed: 100% = complete degradation. As to the method:
as §1

In experiment [6] the target is T1, IKZF2 Helios. The experiment is described as follows: Jurkat Cellular Degradation Assay. Also noted: fluorescently labelled antibodies against Helios, Ikaros and Aiolos; endogenous in cells; host or cells: Jurkat cells. The following applies: for DC50: 50% reduction of protein vs DMSO alone; for IKZF2** Helios max % deg. observed: Table E summary, Jurkat Cellular Degradation Assay (A-1). The procedure:
as §1

The target of experiment [7] is T4, IKZF1 Ikaros. The experiment is described as follows: Human Regulatory T Cell Degradation Assay. The following applies: human regulatory T cells, 20 hours; for DC50: vs DMSO alone. Also noted: Foxp3-BV421, HELIOS-PE-Cy7, EOS-PE, IKAROS-PECF594, AIOLOS-AF647; endogenous in cells; host or cells: human PBMC from healthy donors (CD8+ T cells gated by flow cytometry).

Consider seven compounds from EP4568957B1, “SUBSTITUTED PHENYL OXOOXAZOLYL PIPERIDINE DIONE COMPOUNDS” (Bristol-Myers Squibb Company, priority 2023, dated 2025).

What is called DC50 is the concentration giving 50% degradation.

“And” between values parts separate entries of the source, which are not always exact repeats. Equal values may be shown once.

T4 sequence (Q13422 whole entry): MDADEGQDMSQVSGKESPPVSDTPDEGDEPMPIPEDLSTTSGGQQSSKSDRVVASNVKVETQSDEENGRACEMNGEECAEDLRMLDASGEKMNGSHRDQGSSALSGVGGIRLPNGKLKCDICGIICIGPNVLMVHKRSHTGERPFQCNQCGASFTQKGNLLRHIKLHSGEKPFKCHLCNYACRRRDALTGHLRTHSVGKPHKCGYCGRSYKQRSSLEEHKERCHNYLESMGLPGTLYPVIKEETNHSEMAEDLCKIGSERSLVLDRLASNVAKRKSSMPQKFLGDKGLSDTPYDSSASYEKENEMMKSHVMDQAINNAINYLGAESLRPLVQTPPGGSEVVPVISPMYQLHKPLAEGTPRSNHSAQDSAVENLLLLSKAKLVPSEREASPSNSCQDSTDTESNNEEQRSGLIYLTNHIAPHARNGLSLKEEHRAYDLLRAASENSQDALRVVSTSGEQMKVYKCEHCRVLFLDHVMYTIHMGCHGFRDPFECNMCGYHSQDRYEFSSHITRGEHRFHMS
T4 sequence (Q96SW2 whole entry): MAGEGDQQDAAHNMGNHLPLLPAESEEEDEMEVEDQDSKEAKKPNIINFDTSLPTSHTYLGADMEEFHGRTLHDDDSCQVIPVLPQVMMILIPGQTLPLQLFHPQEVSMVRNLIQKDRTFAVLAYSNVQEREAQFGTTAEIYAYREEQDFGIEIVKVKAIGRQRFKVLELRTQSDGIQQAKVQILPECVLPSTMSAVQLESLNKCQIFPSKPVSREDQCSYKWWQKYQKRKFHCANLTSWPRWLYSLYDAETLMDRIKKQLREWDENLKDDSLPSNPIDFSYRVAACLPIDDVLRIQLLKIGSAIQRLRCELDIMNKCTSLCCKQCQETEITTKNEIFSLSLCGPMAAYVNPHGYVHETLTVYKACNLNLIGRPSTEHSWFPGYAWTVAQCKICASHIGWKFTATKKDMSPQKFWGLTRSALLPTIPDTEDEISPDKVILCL
T4 sequence (Q16531 whole entry partner): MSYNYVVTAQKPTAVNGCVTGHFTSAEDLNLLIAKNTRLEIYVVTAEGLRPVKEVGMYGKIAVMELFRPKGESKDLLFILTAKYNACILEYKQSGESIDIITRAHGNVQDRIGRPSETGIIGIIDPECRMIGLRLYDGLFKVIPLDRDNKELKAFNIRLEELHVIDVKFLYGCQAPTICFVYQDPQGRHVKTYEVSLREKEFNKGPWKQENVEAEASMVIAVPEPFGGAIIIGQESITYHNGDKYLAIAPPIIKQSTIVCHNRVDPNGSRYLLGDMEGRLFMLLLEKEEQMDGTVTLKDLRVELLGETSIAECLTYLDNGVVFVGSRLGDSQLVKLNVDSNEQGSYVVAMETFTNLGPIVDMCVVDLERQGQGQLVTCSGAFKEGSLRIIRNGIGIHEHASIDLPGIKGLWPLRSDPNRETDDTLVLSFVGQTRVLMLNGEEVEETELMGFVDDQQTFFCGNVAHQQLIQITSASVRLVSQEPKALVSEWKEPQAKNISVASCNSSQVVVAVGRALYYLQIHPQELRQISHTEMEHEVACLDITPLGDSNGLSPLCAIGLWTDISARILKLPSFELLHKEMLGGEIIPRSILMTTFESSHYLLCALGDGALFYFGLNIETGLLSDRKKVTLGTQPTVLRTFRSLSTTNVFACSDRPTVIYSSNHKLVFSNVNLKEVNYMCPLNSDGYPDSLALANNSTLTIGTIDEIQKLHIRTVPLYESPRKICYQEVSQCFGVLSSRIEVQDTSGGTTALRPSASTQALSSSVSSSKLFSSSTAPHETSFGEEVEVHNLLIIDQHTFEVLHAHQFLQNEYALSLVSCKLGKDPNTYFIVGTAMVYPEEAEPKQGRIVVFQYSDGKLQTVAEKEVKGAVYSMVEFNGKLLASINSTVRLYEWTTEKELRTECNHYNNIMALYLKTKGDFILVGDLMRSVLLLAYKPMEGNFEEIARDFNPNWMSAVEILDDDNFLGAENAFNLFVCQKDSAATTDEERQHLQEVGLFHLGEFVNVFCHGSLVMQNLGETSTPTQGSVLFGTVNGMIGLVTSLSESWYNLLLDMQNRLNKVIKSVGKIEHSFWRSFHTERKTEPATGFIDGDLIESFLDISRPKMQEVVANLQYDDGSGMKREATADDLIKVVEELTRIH
T2 sequence (Q9UKT9 whole entry): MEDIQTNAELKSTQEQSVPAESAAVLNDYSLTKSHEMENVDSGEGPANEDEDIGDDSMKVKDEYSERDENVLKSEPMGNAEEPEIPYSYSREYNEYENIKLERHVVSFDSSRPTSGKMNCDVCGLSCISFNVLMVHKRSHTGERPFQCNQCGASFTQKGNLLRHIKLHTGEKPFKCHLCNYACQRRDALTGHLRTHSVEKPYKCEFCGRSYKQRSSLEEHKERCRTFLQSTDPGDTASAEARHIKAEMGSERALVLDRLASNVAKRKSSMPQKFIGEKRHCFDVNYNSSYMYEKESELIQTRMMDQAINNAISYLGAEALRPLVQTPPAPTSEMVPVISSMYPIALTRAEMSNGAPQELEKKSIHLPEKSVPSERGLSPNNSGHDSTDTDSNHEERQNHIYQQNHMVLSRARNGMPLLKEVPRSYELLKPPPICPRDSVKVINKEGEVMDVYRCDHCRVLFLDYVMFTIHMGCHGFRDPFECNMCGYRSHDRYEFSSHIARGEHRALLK
T2 sequence (Q96SW2 whole entry): as the sequence (Q96SW2 whole entry) above
T2 sequence (Q16531 whole entry partner): as the sequence (Q16531 whole entry partner) above
T1 sequence (Q9UKS7 whole entry): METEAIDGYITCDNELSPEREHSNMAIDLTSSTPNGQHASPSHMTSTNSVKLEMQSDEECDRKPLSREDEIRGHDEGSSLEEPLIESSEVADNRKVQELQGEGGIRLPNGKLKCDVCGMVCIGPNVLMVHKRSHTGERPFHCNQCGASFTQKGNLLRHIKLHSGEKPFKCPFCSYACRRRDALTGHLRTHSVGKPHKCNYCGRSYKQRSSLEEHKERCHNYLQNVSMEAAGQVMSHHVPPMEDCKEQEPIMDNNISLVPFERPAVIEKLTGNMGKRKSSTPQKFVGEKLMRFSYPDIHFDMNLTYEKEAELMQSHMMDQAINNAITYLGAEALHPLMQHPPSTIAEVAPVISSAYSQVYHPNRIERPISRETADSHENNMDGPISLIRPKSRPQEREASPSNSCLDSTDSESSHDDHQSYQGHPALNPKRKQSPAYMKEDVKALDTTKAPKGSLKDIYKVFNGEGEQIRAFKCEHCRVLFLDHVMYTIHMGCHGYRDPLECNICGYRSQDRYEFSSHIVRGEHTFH
T1 sequence (Q96SW2 whole entry): as the sequence (Q96SW2 whole entry) above
T1 sequence (Q16531 whole entry partner): as the sequence (Q16531 whole entry partner) above
T3 sequence (Q9H2S9 whole entry): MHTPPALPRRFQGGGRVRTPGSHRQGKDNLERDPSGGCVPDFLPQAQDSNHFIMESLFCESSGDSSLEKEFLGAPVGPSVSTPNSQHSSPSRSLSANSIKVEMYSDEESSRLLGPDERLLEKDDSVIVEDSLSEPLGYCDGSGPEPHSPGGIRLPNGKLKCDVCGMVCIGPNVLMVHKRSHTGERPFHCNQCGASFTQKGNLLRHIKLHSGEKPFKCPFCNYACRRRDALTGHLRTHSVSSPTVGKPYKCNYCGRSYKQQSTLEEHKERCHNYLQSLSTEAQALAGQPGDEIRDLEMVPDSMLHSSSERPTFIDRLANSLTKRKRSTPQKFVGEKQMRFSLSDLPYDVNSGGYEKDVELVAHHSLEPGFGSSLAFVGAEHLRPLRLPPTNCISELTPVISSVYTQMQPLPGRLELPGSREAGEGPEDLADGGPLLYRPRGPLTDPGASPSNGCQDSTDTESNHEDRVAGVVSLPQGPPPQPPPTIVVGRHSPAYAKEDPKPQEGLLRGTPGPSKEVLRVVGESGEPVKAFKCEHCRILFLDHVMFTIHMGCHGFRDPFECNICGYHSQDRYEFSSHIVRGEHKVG
T3 sequence (Q96SW2 whole entry): as the sequence (Q96SW2 whole entry) above
T3 sequence (Q16531 whole entry partner): as the sequence (Q16531 whole entry partner) above

As to `Cc1cc(-c2ccc(-c3cn(C4CCC(=O)NC4=O)c(=O)o3)c(F)c2)nc(N)c1NCC1CCOCC1` (stereo not drawn) [Example 3, 3-(5-(4-(6-amino-4-methyl-5-(((tetrahydro-2H-pyran-4-yl)methyl)amino)pyridin-2-yl)-2-fluorophenyl)-2-oxooxazol-3(2H)-yl)piperidine-2,6-dione], the “IKZF2 Helios max % deg. observed” value in experiment [1] is on record as 98%. Moreover, the DC50 was 0.051 µM in experiment [1]; over 10 µM in experiment [2]; 0.141 µM in experiment [3]; 5.6 µM in experiment [4]; 9.49 µM in experiment [5]; 0.036 µM in experiment [6] (Jurkat cells, 24 h). Moreover, in experiment [7], the DC50 was found to be 6.47 µM. In addition, the “IKZF3 Aiolos max % deg. observed” value in experiment [2] was 25%; in experiment [5], 48% and 54%. The “IKZF4 Eos max % deg. observed” value in experiment [3] was 59%. The “IKZF1 Ikaros max % deg. observed” value in experiment [4] is 64% and 57%; in experiment [7], 58%. For the same compound, the “IKZF2** Helios max % deg. observed” value in experiment [6] was found to be 92%.

In the case of `Cc1cc(-c2ccc(-c3cn(C4CCC(=O)NC4=O)c(=O)o3)c(F)c2)nc(N)c1COC1CCOCC1` (stereo not drawn) [Example 5, 3-(5-(4-(6-Amino-4-methyl-5-(((tetrahydro-2H-pyran-4-yl)oxy)methyl)pyridin-2-yl)-2-fluorophenyl)-2-oxooxazol-3(2H)-yl)piperidine-2,6-dione], the “IKZF2 Helios max % deg. observed” value was found to be 98% in experiment [1] and 92% in experiment [6] (Jurkat cells, 24 h, 100% = complete degradation). Moreover, the DC50 was 0.046 µM in experiment [1]; over 10 µM in experiment [2]; 0.575 µM in experiment [3]; 7.9 µM in experiment [4]; over 10 µM in experiment [5]; 0.05 µM in experiment [6] (Jurkat cells, 24 h). In experiment [7], this compound yielded a DC50 of 6.5 µM. Further, the “IKZF3 Aiolos max % deg. observed” value in experiment [2] was 29%; in experiment [5] it was 38%. In experiment [3], the “IKZF4 Eos max % deg. observed” value stood at 67%. For the same compound, the figures for the “IKZF1 Ikaros max % deg. observed” value in experiment [4] and in experiment [7] were 51% and 52%, respectively. The “IKZF2** Helios max % deg. observed” value in experiment [6] came out at 92%.

As to `CO[C@H]1C[C@H](Oc2c(C)cc(-c3ccc(-c4cn(C5CCC(=O)NC5=O)c(=O)o4)c(F)c3)nc2N)C1` (relative stereo) [Example 2, trans 3-(5-(4-(6-amino-5-(3-methoxycyclobutoxy)-4-methylpyridin-2-yl)-2-fluorophenyl)-2-oxooxazol-3(2H)-yl)piperidine-2,6-dione], the “IKZF2 Helios max % deg. observed” value in experiment [1] was determined as 98%. The DC50 was 0.071 µM in experiment [1]; over 100 µM in experiment [2]; 0.193 µM in experiment [3]; 4.38 µM in experiment [4]; 2.32 µM in experiment [5]; 0.037 µM in experiment [6] (Jurkat cells, 24 h). Besides, it took 0.95 µM to reach half-maximal degradation in experiment [7] (DC50). Also, in experiment [2], the “IKZF3 Aiolos max % deg. observed” value is listed as 25%. The “IKZF4 Eos max % deg. observed” value in experiment [3] is 62%. In addition, the “IKZF2** Helios max % deg. observed” value in experiment [6] is 92%. Also, the “IKZF1 Ikaros max % deg. observed” value in experiment [7] amounted to 56%.

`CC1(C)Cc2cc(-c3ccc(-c4cn(C5CCC(=O)NC5=O)c(=O)o4)c(F)c3)nc(N)c2O1` (stereo not drawn) [Example 1, 3-(5-(4-(7-amino-2,2-dimethyl-2,3-dihydrofuro[2,3-c]pyridin-5-yl)-2-fluorophenyl)-2-oxooxazol-3(2H)-yl)piperidine-2,6-dione]: the “IKZF2 Helios max % deg. observed” value in experiment [1] turned out to be 98%. Further, the half-maximal degradation concentration (DC50) in experiment [1] was 0.052 µM; in experiment [2], over 10 µM; in experiment [3] it was 0.055 µM; in experiment [4], 1.51 µM; in experiment [5] it was 0.6 µM; in experiment [6] (Jurkat cells, 24 h), 0.022 µM. In experiment [7], this compound returned a DC50 of 8.23 µM. The results for the “IKZF3 Aiolos max % deg. observed” value in experiment [2] and in experiment [5] were 22% and 55%, respectively. Further, the “IKZF4 Eos max % deg. observed” value in experiment [3] is reported as 56%. The “IKZF1 Ikaros max % deg. observed” value in experiment [4] turned out to be 63%; in experiment [7], 51%. In addition, in experiment [6], the “IKZF2** Helios max % deg. observed” value worked out at 89%.

Take `O=C1CCC(n2cc(-c3ccc(Br)cc3F)oc2=O)C(=O)N1` (stereo not drawn) [Comparative Compound B, 3-(5-(4-bromo-2-fluorophenyl)-2-oxooxazol-3(2H)-yl)piperidine-2,6-dione, reference compound]: in experiment [4], the DC50 is over 10 µM and the “IKZF1 Ikaros max % deg. observed” value was 24%. In experiment [5], the DC50 is over 10 µM and the “IKZF3 Aiolos max % deg. observed” value came out at 25%. The compound also yielded a DC50 in experiment [6] (Jurkat cells, 24 h) of over 10 µM. Also, in experiment [6], the “IKZF2** Helios max % deg. observed” value was 11%.

As for `O=C1CCC(n2cc(-c3ccccc3)oc2=O)C(=O)N1` (stereo not drawn) [Comparative Compound A, 3-(2-oxo-5-phenyloxazol-3(2H)-yl)piperidine-2,6-dione, reference compound], in experiment [4], the DC50 was 1.52 µM and the “IKZF1 Ikaros max % deg. observed” value is reported as 70%. For the same compound, in experiment [5], the DC50 is over 10 µM and the “IKZF3 Aiolos max % deg. observed” value worked out at 52%. Besides, in experiment [6] (Jurkat cells, 24 h), the DC50 was over 10 µM. Besides, in experiment [6], the “IKZF2** Helios max % deg. observed” value came to 27%.

On to `COC1CCN(Cc2ccc(-c3ccc(-c4cn(C5CCC(=O)NC5=O)c(=O)o4)c(F)c3)nc2N)CC1` (stereo not drawn) [Example 4, 3-(5-(4-(6-amino-5-((4-methoxypiperidin-1-yl)methyl)pyridin-2-yl)-2-fluorophenyl)-2-oxooxazol-3(2H)-yl)piperidine-2,6-dione], for which, in experiment [1], the “IKZF2 Helios max % deg. observed” value was found to be 98%. In addition, the DC50 in experiment [1] was 0.059 µM; in experiment [2], over 10 µM; in experiment [3] it was 0.203 µM; in experiment [4], 1.2 µM; in experiment [5], 3.01 µM; in experiment [6] (Jurkat cells, 24 h), 0.034 µM. This compound also gave a DC50 in experiment [7] of 3.79 µM. Also, the “IKZF3 Aiolos max % deg. observed” value in experiment [2] is given as 35%; in experiment [5], 61%. Moreover, the “IKZF4 Eos max % deg. observed” value in experiment [3] came out at 62%. Besides, the entries for the “IKZF1 Ikaros max % deg. observed” value in experiment [4] and in experiment [7] were 69% and 67%, respectively. Moreover, the “IKZF2** Helios max % deg. observed” value in experiment [6] turned out to be 91%.
